Assays:
Format in all cases: binding
Fibrinogen = assay: SPR adsorption of protein on monolayers: fibrinogen; settings: for amount of protein that remains adsorbed to the SAM (Fibrinogen): protein 0.5 mg/ml in PBS pH 7.6, SAM on gold
Experimental: (§1) Two experimental procedures were used to evaluate the monolayers as inert surfaces. Surface plasmon resonance (SPR) spectroscopy measures the adsorption of protein to the monolayer. All SPR experiments were performed on a BIAcore 1000 instrument. Substrates were glued into plastic BIACore cassettes with a two-part epoxy (DEVCON). Phosphate-buffered saline (PBS; 10 mM phosphate, 150 mM sodium chloride, pH 7.6) was degassed under vacuum and all protein solutions were filtered through 0.45-μm filters before use. SPR is well suited for characterization of protein adsorption because it measures adsorption in situ and can detect weak, readily reversible protein adsorption. For all monolayers, a panel of five proteins that spanned a range in molecular weight and pI were investigated.
Protein adsorption and cell attachment on four different monolayers was compared. Gold films were prepared by evaporation of titanium (1.5 nm) and then gold (40 nm) onto glass cover slips (0.20 mm, No. 2, Corning). The SAMs were prepared by immersing gold films of approximately 1 cm^2 in ethanolic solutions of alkanethiol (2 mM) for 9 hours. The SAMs were rinsed with ethanol and dried with nitrogen before use. As a control monolayer that is not inert, a SAM of hexadecanethiolate that presents hydrophobic methyl groups at the surface were used. Monolayers terminated in the tri(ethylene glycol) group were used as the current standard for inert surfaces. Each of the two additional monolayers presents the mannitol group and differs only in the length of alkyl chain to which the mannitol group is appended. [drawing 9]
SPR was used to measure the adsorption of five proteins—fibrinogen, pepsin, lysozyme, insulin, and trypsin—to the four monolayers. SPR measures changes in the refractive index of a solution near the interface with a gold film by measuring changes in the angle (ΔΘm) at which p-polarized light reflected from the glass/gold interface has a minimum in intensity. SAMs were mounted in a flow cell and experiments were performed by first flowing a phosphate buffered saline (PBS) through the cell for 5 minutes, then a solution of protein in the same buffer (0.5 mg/ml) for 5 minutes, and then PBS for 5 minutes. The rise in ΔΘm upon introduction of the protein solution has two contributions. […] The second contribution is due to the adsorption of protein to the SAM. The amount of protein that adsorbs irreversibly to the SAM is determined by comparing the shift in Θm before and after the SAM is exposed to protein. An increase in Θm of 0.1° corresponds to an increase in density of adsorbed protein of 1 ng/mm^2.

Insulin = assay: SPR adsorption of protein on monolayers: insulin; settings: protein 0.5 mg/ml in PBS pH 7.6, SAM on gold
Experimental: as §1
(§2) Protein adsorption and cell attachment on four different monolayers was compared. Gold films were prepared by evaporation of titanium (1.5 nm) and then gold (40 nm) onto glass cover slips (0.20 mm, No. 2, Corning). […]
(§3) SPR was used to measure the adsorption of five proteins—fibrinogen, pepsin, lysozyme, insulin, and trypsin—to the four monolayers. […] The amount of protein that adsorbs irreversibly to the SAM is determined by comparing the shift in Θm before and after the SAM is exposed to protein. […]

Trypsin = assay: SPR adsorption of protein on monolayers: trypsin; settings: protein 0.5 mg/ml in PBS pH 7.6, SAM on gold
Experimental: as §1, §2, §3

Lysozyme = biological target: T1, Lysozyme (Homo sapiens, UniProt P61626); assay: SPR adsorption of protein on monolayers: lysozyme; settings: protein 0.5 mg/ml in PBS pH 7.6, SAM on gold
T1 sequence (P61626 19-148): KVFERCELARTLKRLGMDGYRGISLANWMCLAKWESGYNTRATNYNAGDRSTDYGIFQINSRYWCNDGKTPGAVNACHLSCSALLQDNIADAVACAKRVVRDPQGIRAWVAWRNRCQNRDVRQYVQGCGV
Experimental: as §1, §2, §3

Pepsin = Pepsin (Homo sapiens, UniProt P0DJD8); assay: SPR adsorption of protein on monolayers: pepsin; settings: protein 0.5 mg/ml in PBS pH 7.6, SAM on gold
Pepsin, sequence (P0DJD8 63-388): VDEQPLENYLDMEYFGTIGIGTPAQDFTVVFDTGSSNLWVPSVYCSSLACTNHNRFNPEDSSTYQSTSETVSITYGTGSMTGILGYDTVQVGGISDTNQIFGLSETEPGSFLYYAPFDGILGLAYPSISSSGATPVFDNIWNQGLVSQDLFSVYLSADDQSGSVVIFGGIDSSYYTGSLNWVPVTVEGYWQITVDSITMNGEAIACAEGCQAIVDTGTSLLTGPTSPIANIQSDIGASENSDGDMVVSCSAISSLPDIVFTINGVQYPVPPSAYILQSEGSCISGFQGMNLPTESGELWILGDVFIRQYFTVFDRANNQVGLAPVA
Experimental: as §1, §2, §3

With CCCCCCCCCCCCCCCCS [HDT, hexadecanethiolate] the “adsorption of fibrinogen to the SAM (in words)” value (Fibrinogen; FIG. 1) was “A complete monolayer of protein adsorbs”, the “change in Θm on adsorption of fibrinogen” value (Fibrinogen; FIG. 1) was 0.35 ° and the “amount of protein that remains adsorbed to the SAM (Fibrinogen)” value (Fibrinogen) was 3,432 pg/mm^2. The “amount of protein that remains adsorbed to the SAM (Fibrinogen)” value (Fibrinogen; listed as hexadecanethiolate) was 3,500 pg/mm^2, the “amount of protein that remains adsorbed to the SAM (Insulin)” value (Insulin) was 688 pg/mm^2 and the “amount of protein that remains adsorbed to the SAM (Trypsin)” value (Trypsin) was 661 pg/mm^2. The “amount of protein that remains adsorbed to the SAM (Lysozyme)” value (Lysozyme) was 1,023 pg/mm^2 and the “amount of protein that remains adsorbed to the SAM (Pepsin)” value (Pepsin) was 1,337 pg/mm^2.
